Each structure is given as a SMILES string. pIC50: −log10 of the molar value.

The first test deals with ISR pathway (ATF4 translation). The experiment in a line: ATF4 Nano Luciferase reporter integrated stress response (ISR) assay in H4 ATF4-NLuc cells. The note with it: Homo sapiens, H4 ATF4-NLuc (clone 17) cells; compound 30 minutes, then 50 um sodium arsenite for 6 hours; luminescence readout. For orientation: Reporter assays use an easily measured gene product as a stand-in for the process of interest.
What is called pIC50 is the negative decadic logarithm of the IC50, by convention in mol/L. `O=C(COCCOC(F)(F)F)NC12CC(n3cnc(-c4ccc(Cl)c(F)c4)c3)(C1)C2` [Example 152] gave a pIC50 of 7.42.

The test is the same for the next values; noted with them: Homo sapiens, read-out: Activity (IC50), H4 ATF4-NLuc (clone 17) cells; compound 30 minutes, then 50 um sodium arsenite for 6 hours; luminescence readout.
In the case of `O=C(CO[C@H]1C[C@@H](OC(F)(F)F)C1)NC12CC(c3cn(-c4ccc(Cl)c(F)c4)nn3)(C1)C2` [Example 77, N-[3-[1-(4-chloro-3-fluoro-phenyl)triazol-4-yl]-1-bicyclo[1.1.1]pentanyl]-2-[3-cis-(trifluoromethoxy)cyclobutoxy]acetamide], the negative-log IC50 (pIC50) is above 6.00.
Same read-out and setting: as for `O=C(NC12CC(n3cnc(-c4ccc(Cl)c(F)c4)c3)(C1)C2)[C@H]1C[C@@H](OC(F)(F)F)C1` [Example 153], the figure is above 6.00; as for `O=C(COc1ccc(Cl)c(F)c1)NC12CC(c3nnc(C4CN(CC(F)F)C4)o3)(C1)C2` [Example 130, 2-(4-chloro-3-fluoro-phenoxy)-N-[3-[5-[1-(2,2-difluoroethyl)azetidin-3-yl]-1,3,4-oxadiazol-2-yl]-1-bicyclo[1.1.1]pentanyl]acetamide], above 6.00; as for `O=C(COC1CC2(CC2)C1)NC12CC(c3nnc([C@H]4C[C@@H](OC(F)(F)F)C4)o3)(C1)C2` [Example 115, 2-spiro[2.3]hexan-5-yloxy-N-[3-[5-[3-cis-(trifluoromethoxy)cyclobutyl]-1,3,4-oxadiazol-2-yl]-1-bicyclo[1.1.1]pentanyl]acetamide], 5.00 to 6.00.
Regarding `C[C@H]1C[C@@H]1c1nnc(C23CC(NC(=O)COc4ccc(Cl)c(F)c4)(C2)C3)o1` (single isomer, unassigned) [Example 112, 2-(4-chloro-3-fluoro-phenoxy)-N-[1-[5-[2-methylcyclopropyl]-1,3,4-oxadiazol-2-yl]-3-bicyclo[1.1.1]pentanyl]acetamide], the pIC50 is above 6.00.
The same measure, in the same setting: the value for `O=C(COc1ccc(Cl)c(F)c1)NC12CC(C3CN(CC4CCC4)C(=O)O3)(C1)C2` (stereo not drawn) [Example 220] was above 6.00; that for `O=C(NC12CC(c3nnc([C@H]4C[C@H](OC(F)(F)F)C4)o3)(C1)C2)OCc1ccc(Cl)cc1` [Example 111, (4-chlorophenyl)methyl-N-[3-[5-[3-trans-(trifluoromethoxy)cyclobutyl]-1,3,4-oxadiazol-2-yl]-1-bicyclo[1.1.1]pentanyl]carbamate] was above 6.00.
As to `O=C(COc1ccc(Cl)c(F)c1)NC12CC(N3CC(COC(F)(F)F)CC3=O)(C1)C2` (stereo not drawn) [Example 221], the pIC50 was above 6.00.
Take `O=C(COc1ccc(Cl)cc1)NC12CC(c3nnc([C@H]4C[C@@H](COC(F)(F)F)C4)o3)(C1)C2` [Example 86, 2-(4-chlorophenoxy)-N-[3-[5-[3-cis-(trifluoromethoxymethyl)cyclobutyl]-1,3,4-oxadiazol-2-yl]-1-bicyclo[1.1.1]pentanyl]acetamide]: the pIC50 was above 6.00.
With `O=C(NC12CC(c3nnc([C@H]4C[C@@H](OC(F)(F)F)C4)o3)(C1)C2)c1cn2cc(F)ccc2n1` [Example 180], the pIC50 was 5.00 to 6.00.
The same measure, in the same setting: as for `O=C(CO[C@H]1C[C@@H](OC(F)(F)F)C1)NC12CC(c3cc(-c4ccc5c(c4)OC(F)(F)O5)no3)(C1)C2` [Example 258], the figure is above 6.00; as for `O=C(COc1ccc(Cl)c(F)c1)NC12CC(N3CCC(COC(F)(F)F)C3=O)(C1)C2` (stereo not drawn) [Example 222], above 6.00; as for `C#CCN(C(=O)COc1ccc(Cl)cc1)C12CC(c3nnc([C@H]4C[C@@H](OC(F)(F)F)C4)o3)(C1)C2` [Example 74, 2-(4-chlorophenoxy)-N-prop-2-ynyl-N-[1-[5-[3-cis-(trifluoromethoxy)cyclobutyl]-1,3,4-oxadiazol-2-yl]-3-bicyclo[1.1.1]pentanyl]acetamide], above 6.00.
`O=C(CO[C@H]1C[C@@H](OC(F)(F)F)C1)NC12CC(n3cnc(-c4ccc(C(F)(F)F)cc4CO)c3)(C1)C2` [Example 272]: the pIC50 was above 6.00.
Same read-out and setting: as for `O=C(COc1ccc(Cl)c(F)c1)NC12CC(c3nnc(C4C[C@H]4COC(F)(F)F)o3)(C1)C2` (mixture of isomers) [Example 80, 2-(4-chloro-3-fluoro-phenoxy)-N-[3-[5-[2-trans-(trifluoromethoxymethyl)cyclopropyl]-1,3,4-oxadiazol-2-yl]-1-bicyclo[1.1.1]pentanyl]acetamide], the figure is above 6.00; as for `O=C(COc1ccc(Cl)c(F)c1)NC12CC(c3nnc([C@@H]4CC[C@H](COC(F)(F)F)O4)o3)(C1)C2` [Example 124, 2-(4-chloro-3-fluoro-phenoxy)-N-[3-[5-[5-cis-(trifluoromethoxymethyl)tetrahydrofuran-2-yl]-1,3,4-oxadiazol-2-yl]-1-bicyclo[1.1.1]pentanyl]acetamide], above 6.00.
In the case of `O=C(COc1ccc(Cl)c(F)c1)NC12CC(N3CCN(CC4CCC4)C3=O)(C1)C2` [Example 215], the pIC50 was 5.00 to 6.00.
Consider `O=C(COC1CC2C(C1)C2(F)F)NC12CC(c3nnc([C@H]4C[C@@H](OC(F)(F)F)C4)o3)(C1)C2` (stereo partly drawn) [Example 83, 2-[(6,6-difluoro-3-bicyclo[3.1.0]hexanyl)oxy]-N-[3-[5-[3-cis-(trifluoromethoxy)cyclobutyl]-1,3,4-oxadiazol-2-yl]-1-bicyclo[1.1.1]pentanyl]acetamide], for which the pIC50 is 5.00 to 6.00.
As to `O=C(NC12CC(c3nnc([C@H]4C[C@@H](OC(F)(F)F)C4)o3)(C1)C2)c1cn2ncc(Cl)cc2n1` [Example 177], the pIC50 is above 6.00.
As for `O=C(CO[C@H]1C[C@H](OC(F)(F)F)C1)NC12CC(c3nnc([C@H]4C[C@@H](OC(F)(F)F)C4)o3)(C1)C2` [Example 95, 2-[3-trans-(trifluoromethoxy)cyclobutoxy]-N-[3-[5-[3-cis-(trifluoromethoxy)cyclobutyl]-1,3,4-oxadiazol-2-yl]-1-bicyclo[1.1.1]pentanyl]acetamide], the pIC50 is above 6.00.
Consider `O=C(NC12CC(c3nnc([C@H]4C[C@@H](OC(F)(F)F)C4)o3)(C1)C2)c1nc2cc(Cl)ccc2s1` [Example 175], for which the pIC50 was above 6.00.
As for `O=C(CO[C@H]1C[C@@H](n2nccn2)C1)NC12CC(c3nnc([C@H]4C[C@@H](OC(F)(F)F)C4)o3)(C1)C2` [Example 172], the pIC50 is 5.00 to 6.00.
Turning to `O=C(NC12CC(c3nnc([C@H]4C[C@@H](OC(F)(F)F)C4)o3)(C1)C2)c1nc2cc(Br)ccc2o1` [Example 193], the pIC50 is above 6.00.
`O=C(COc1ccc(Cl)c(F)c1)NC12CC(c3cn(C4CCC4)nn3)(C1)C2` (single isomer, unassigned) [Example 20, 2-(4-chloro-3-fluoro-phenoxy)-N-[1-(1-cyclobutyltriazol-4-yl)-3-bicyclo[1.1.1]pentanyl]acetamide]: the pIC50 was above 6.00.
Regarding `O=C(CO[C@H]1C[C@@H](OC(F)(F)F)C1)NC12CC(c3nnc(-c4ccc(C(F)(F)F)nc4)o3)(C1)C2` [Example 204], the pIC50 is above 6.00.
For the compound `O=C(CO[C@H]1C[C@@H](OC(F)(F)F)C1)NC12CC(c3nc4ccc(Cl)cc4o3)(C1)C2` [Example 233], the pIC50 is above 6.00.
`O=C(CO[C@H]1C[C@@H](OC(F)(F)F)C1)NC12CC(c3cnn(-c4ccccc4)c3)(C1)C2` [Example 275]: the pIC50 is above 6.00.
For the compound `O=C(COc1ccc(Cl)c(F)c1)NC12CC(c3nnc(C4CN(CC(F)(F)F)CCO4)o3)(C1)C2` (stereo not drawn) [Example 127, 2-(4-chloro-3-fluoro-phenoxy)-N-[3-[5-[4-(2,2,2-trifluoroethyl)morpholin-2-yl]-1,3,4-oxadiazol-2-yl]-1-bicyclo[1.1.1]pentanyl]acetamide], the pIC50 is above 6.00.
Turning to `O=C(CO[C@H]1C[C@@H](OC(F)(F)F)C1)NC12CC(c3nnc(-c4ccn(CC(F)(F)F)n4)o3)(C1)C2` [Example 119, N-[3-[5-[1-(2,2,2-trifluoroethyl)pyrazol-3-yl]-1,3,4-oxadiazol-2-yl]-1-bicyclo[1.1.1]pentanyl]-2-[3-cis-(trifluoromethoxy)cyclobutoxy]acetamide], the pIC50 was 5.00 to 6.00.
For the compound `O=C(COc1ccc(Cl)cc1)NC12CC(n3cnc([C@H]4C[C@@H](OC(F)(F)F)C4)c3)(C1)C2` [Example 68, 2-(4-chlorophenoxy)-N-[3-[4-[3-cis-(trifluoromethoxy)cyclobutyl]imidazol-1-yl]-1-bicyclo[1.1.1]pentanyl]acetamide], the pIC50 is above 6.00.
Regarding `O=C(COc1ccc(Cl)c(F)c1)NC12CC(c3cn(Cc4ccccc4)nn3)(C1)C2` [Example 58], the pIC50 is above 6.00.
The same measure, in the same setting: the value for `O=C(COc1ccc(C2CC2)cc1)NC12CC(c3nnc([C@H]4C[C@@H](OC(F)(F)F)C4)o3)(C1)C2` [Example 120, 2-(4-cyclopropylphenoxy)-N-[3-[5-[3-cis-(trifluoromethoxy)cyclobutyl]-1,3,4-oxadiazol-2-yl]-1-bicyclo[1.1.1]pentanyl]acetamide] was above 6.00; that for `O=C(COCCOC(F)(F)F)NC12CC(n3cnc(-c4ccc(Cl)c(F)c4)c3)(C1)C2` [Example 152] was above 6.00; that for `Cc1cc(-c2cn(C34CC(NC(=O)CO[C@H]5C[C@@H](OC(F)(F)F)C5)(C3)C4)cn2)ccc1F` [Example 147] was above 6.00.

The same test, now with this note: read-out: Activity (IC50); H4 ATF4-NLuc (clone 17) cells; compound 30 minutes, then 50 um sodium arsenite for 6 hours; luminescence readout.
With `O=C(COC1CC(OC(F)(F)F)C1)NC12CC(c3nnc(C4C[C@H]4COC(F)(F)F)o3)(C1)C2` (single isomer, unassigned) [Example 91, 2-[3-cis-(trifluoromethoxy)cyclobutoxy]-N-[3-[5-[2-trans-(trifluoromethoxymethyl)cyclopropyl]-1,3,4-oxadiazol-2-yl]-1-bicyclo[1.1.1]pentanyl]acetamide], the pIC50 is above 6.00.
As to `O=C(COc1ccc(Cl)cc1)NC12CC(c3nnc([C@H]4C[C@H](COC(F)(F)F)C4)o3)(C1)C2` [Example 87, 2-(4-chlorophenoxy)-N-[3-[5-[3-trans-(trifluoromethoxymethyl)cyclobutyl]-1,3,4-oxadiazol-2-yl]-1-bicyclo[1.1.1]pentanyl]acetamide], the pIC50 was above 6.00.
`O=C(COc1ccc(Cl)c(F)c1)NC12CC(C3CN(CC4CCC4)C(=O)O3)(C1)C2` (stereo not drawn) [Example 60]: the pIC50 was above 6.00.
Still for that read-out and setting: the value for `O=C(COc1ccc(Cl)c(F)c1)NC12CC(C3CN(C4CCC4)C(=O)O3)(C1)C2` (stereo not drawn) [Example 59] was 5.00 to 6.00.

The values above are taken from US11851440B2, “Modulators of eukaryotic initiation factor 2B, compositions and methods” (Denali Therapeutics Inc., priority 2017, dated 2023).
